Test results published in patent US20220112479A1, “COMPOUNDS STABILIZING AMYLASES IN LIQUIDS” (BASF SE, priority 2018, published 2022).

What was measured:
Savinase Ultra 16.0L = biological target: T1, Savinase Ultra 16.0L (Lederbergia lenta, UniProt P29600); experiment: protease storage stability in liquid formulation (Suc-AAPF-pNA substrate); format: biochemical; conditions: storage at 37° C.
T1 construct: purchased Sigma-Aldrich
T1 sequence (P29600 1-269): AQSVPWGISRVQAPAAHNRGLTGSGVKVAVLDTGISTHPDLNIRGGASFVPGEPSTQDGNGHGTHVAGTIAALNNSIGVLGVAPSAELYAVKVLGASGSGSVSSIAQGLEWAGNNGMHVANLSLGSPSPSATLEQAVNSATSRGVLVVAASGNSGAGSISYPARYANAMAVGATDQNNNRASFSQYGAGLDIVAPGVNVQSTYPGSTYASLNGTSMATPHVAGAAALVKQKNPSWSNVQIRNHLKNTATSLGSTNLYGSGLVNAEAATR
Summary of the method: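 Savinase in liquid base formulations containing test salt, comparative compound or diethylene glycol; amounts given as active protein. Residual activity at set storage times measured with Suc-AAPF-pNA via pNA release at OD405, 20 °C. Activity expressed relative to reference formulation at time 0.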

[1] = system: Amy3=Stainzyme Plus L (12L); experiment: amylase storage stability in liquid formulation (pNP release from Ethyliden-blocked-pNPG7); format: biochemical; conditions: base formulation II., 1.5 wt % component (a), storage at 37° C.
Description: The storage stability of amylase was assessed at 37° C.
Base test formulations were manufactured by making base formulations I to V by mixing the components according to Table 1.
Amylases used: Amy1=Stainzyme, Amy2=Amplify, Amy3=Stainzyme Plus L (12L)
The respective component (a) or comparative compound was added, if applicable, to the respective base formulation in amounts as indicated in Table 1.
The amount of amylase as provided in Table 1 refers to active protein.
Water was added to accomplish the balance to 100.
Amylase activity at certain points in time as indicated in Table 2 was measured quantitatively by the release of the chromophore para-nitrophenol (pNP) from the substrate (Ethyliden-blocked-pNPG7, Roche Applied Science 10880078103). The alpha-amylase degrades the substrate into smaller molecules and α-glucosidase (Roche Applied Science 11626329103), which is present in excess compared to the amylase, process these smaller products until pNP is released; the release of pNP, measured via an increase of absorption at 405 nm, is directly proportional to the amylase activity of the sample. Amylase standard: Termamyl 120 L (Sigma 3403).
The amylolytic activity values provided were calculated referring to the value determined in the reference formulation at the time 0.
The nomenclature of formulations is as follows: the Roman number before the full stop characterizes the base formulation, the Arabian number the type of compound (A.# compound according to invention (component (a)); B.# comparative compound).

[2] = base formulation I., 1.5 wt % component (a), 3 d
[3] = base formulation I., 1.5 wt % component (a), 7 d
[4] = base formulation I., 1.5 wt % component (a), 14 d
[5] = base formulation I., 1.5 wt % component (a), 21 d
[6] = base formulation I., 1.5 wt % component (a), 28 d
[7] = base formulation I., 1.5 wt % component (a), 42 d
[8] = base formulation I., 1.5 wt % component (a), T0
[9] = base formulation II., 1.5 wt % component (a), 3 d
[10] = base formulation II., 1.5 wt % component (a), 7 d
[11] = base formulation II., 1.5 wt % component (a), 14 d
[12] = base formulation II., 1.5 wt % component (a), 21 d
[13] = base formulation II., 1.5 wt % component (a), 28 d
[14] = base formulation II., 1.5 wt % component (a), 42 d
[15] = base formulation II., 1.5 wt % component (a), T0
[16] = base formulation III., 1.5 wt % component (a), 3 d
[17] = base formulation III., 1.5 wt % component (a), 7 d
[18] = base formulation III., 1.5 wt % component (a), 14 d
[19] = base formulation III., 1.5 wt % component (a), 21 d
[20] = base formulation III., 1.5 wt % component (a), 28 d
[21] = base formulation III., 1.5 wt % component (a), 42 d
[22] = base formulation III., 1.5 wt % component (a), T0
[23] = base formulation V., 2.0 wt % component (a), 3 d
[24] = base formulation V., 2.0 wt % component (a), 7 d
[25] = base formulation V., 2.0 wt % component (a), 14 d
[26] = base formulation V., 2.0 wt % component (a), 21 d
[27] = base formulation V., 2.0 wt % component (a), 28 d
[28] = base formulation V., 2.0 wt % component (a), 42 d
[29] = base formulation V., 2.0 wt % component (a), T0

CCCOC(=O)CC(O)(CC(=O)OCCC)C(=O)OCCC [A.2, Tripropylcitrate]
protease activity, referring to reference formulation at time 0 (Savinase Ultra 16.0L; [2]): 100 | protease activity, referring to reference formulation at time 0 (Savinase Ultra 16.0L; [3]): 95 | protease activity, referring to reference formulation at time 0 (Savinase Ultra 16.0L; [4]): 90 | protease activity, referring to reference formulation at time 0 (Savinase Ultra 16.0L; [5]): 85 | protease activity, referring to reference formulation at time 0 (Savinase Ultra 16.0L; [6]): 81 | protease activity, referring to reference formulation at time 0 (Savinase Ultra 16.0L; [7]): 71 | protease activity, referring to reference formulation at time 0 (Savinase Ultra 16.0L; [8]): 101 | protease activity, referring to reference formulation at time 0 (Savinase Ultra 16.0L; [9]): 100 | protease activity, referring to reference formulation at time 0 (Savinase Ultra 16.0L; [10]): 96 | protease activity, referring to reference formulation at time 0 (Savinase Ultra 16.0L; [11]): 91 | protease activity, referring to reference formulation at time 0 (Savinase Ultra 16.0L; [12]): 87 | protease activity, referring to reference formulation at time 0 (Savinase Ultra 16.0L; [13]): 83 | protease activity, referring to reference formulation at time 0 (Savinase Ultra 16.0L; [14]): 72 | protease activity, referring to reference formulation at time 0 (Savinase Ultra 16.0L; [15]): 101 | protease activity, referring to reference formulation at time 0 (Savinase Ultra 16.0L; [16]): 100 | protease activity, referring to reference formulation at time 0 (Savinase Ultra 16.0L; [17]): 95 | protease activity, referring to reference formulation at time 0 (Savinase Ultra 16.0L; [18]): 93 | protease activity, referring to reference formulation at time 0 (Savinase Ultra 16.0L; [19]): 88 | protease activity, referring to reference formulation at time 0 (Savinase Ultra 16.0L; [20]): 83 | protease activity, referring to reference formulation at time 0 (Savinase Ultra 16.0L; [21]): 73 | protease activity, referring to reference formulation at time 0 (Savinase Ultra 16.0L; [22]): 101 | protease activity, referring to reference formulation at time 0 (Savinase Ultra 16.0L; [23]): 95 | protease activity, referring to reference formulation at time 0 (Savinase Ultra 16.0L; [24]): 92 | protease activity, referring to reference formulation at time 0 (Savinase Ultra 16.0L; [25]): 87 | protease activity, referring to reference formulation at time 0 (Savinase Ultra 16.0L; [26]): 82 | protease activity, referring to reference formulation at time 0 (Savinase Ultra 16.0L; [27]): 77 | protease activity, referring to reference formulation at time 0 (Savinase Ultra 16.0L; [28]): 70 | protease activity, referring to reference formulation at time 0 (Savinase Ultra 16.0L; [29]): 100 | amylase activity, referring to reference formulation at time 0 ([1]; 3 d): 100 | amylase activity, referring to reference formulation at time 0 ([1]; 7 d): 97 | amylase activity, referring to reference formulation at time 0 ([1]; 14 d): 93 | amylase activity, referring to reference formulation at time 0 ([1]; 21 d): 87 | amylase activity, referring to reference formulation at time 0 ([1]; 28 d): 83 | amylase activity, referring to reference formulation at time 0 ([1]; 42 d): 69 | amylase activity, referring to reference formulation at time 0 ([1]; T0): 102

Diethylcitrate [A.7]
protease activity, referring to reference formulation at time 0 (Savinase Ultra 16.0L; [2]): 94 | protease activity, referring to reference formulation at time 0 (Savinase Ultra 16.0L; [3]): 91 | protease activity, referring to reference formulation at time 0 (Savinase Ultra 16.0L; [4]): 85 | protease activity, referring to reference formulation at time 0 (Savinase Ultra 16.0L; [5]): 81 | protease activity, referring to reference formulation at time 0 (Savinase Ultra 16.0L; [6]): 76 | protease activity, referring to reference formulation at time 0 (Savinase Ultra 16.0L; [7]): 63 | protease activity, referring to reference formulation at time 0 (Savinase Ultra 16.0L; [8]): 100 | protease activity, referring to reference formulation at time 0 (Savinase Ultra 16.0L; [9]): 98 | protease activity, referring to reference formulation at time 0 (Savinase Ultra 16.0L; [10]): 93 | protease activity, referring to reference formulation at time 0 (Savinase Ultra 16.0L; [11]): 88 | protease activity, referring to reference formulation at time 0 (Savinase Ultra 16.0L; [12]): 85 | protease activity, referring to reference formulation at time 0 (Savinase Ultra 16.0L; [13]): 80 | protease activity, referring to reference formulation at time 0 (Savinase Ultra 16.0L; [14]): 71 | protease activity, referring to reference formulation at time 0 (Savinase Ultra 16.0L; [15]): 100 | protease activity, referring to reference formulation at time 0 (Savinase Ultra 16.0L; [16]): 97 | protease activity, referring to reference formulation at time 0 (Savinase Ultra 16.0L; [17]): 95 | protease activity, referring to reference formulation at time 0 (Savinase Ultra 16.0L; [18]): 92 | protease activity, referring to reference formulation at time 0 (Savinase Ultra 16.0L; [19]): 87 | protease activity, referring to reference formulation at time 0 (Savinase Ultra 16.0L; [20]): 74 | protease activity, referring to reference formulation at time 0 (Savinase Ultra 16.0L; [21]): 64 | protease activity, referring to reference formulation at time 0 (Savinase Ultra 16.0L; [22]): 100 | protease activity, referring to reference formulation at time 0 (Savinase Ultra 16.0L; base formulation IV., 2.0 wt % component (a), 3 d): 96 | protease activity, referring to reference formulation at time 0 (Savinase Ultra 16.0L; base formulation IV., 2.0 wt % component (a), 7 d): 88 | protease activity, referring to reference formulation at time 0 (Savinase Ultra 16.0L; base formulation IV., 2.0 wt % component (a), 14 d): 79 | protease activity, referring to reference formulation at time 0 (Savinase Ultra 16.0L; base formulation IV., 2.0 wt % component (a), 21 d): 74 | protease activity, referring to reference formulation at time 0 (Savinase Ultra 16.0L; base formulation IV., 2.0 wt % component (a), 28 d): 68 | protease activity, referring to reference formulation at time 0 (Savinase Ultra 16.0L; base formulation IV., 2.0 wt % component (a), 42 d): 62 | protease activity, referring to reference formulation at time 0 (Savinase Ultra 16.0L; base formulation IV., 2.0 wt % component (a), T0): 98 | protease activity, referring to reference formulation at time 0 (Savinase Ultra 16.0L; [23]): 93 | protease activity, referring to reference formulation at time 0 (Savinase Ultra 16.0L; [24]): 88 | protease activity, referring to reference formulation at time 0 (Savinase Ultra 16.0L; [25]): 79 | protease activity, referring to reference formulation at time 0 (Savinase Ultra 16.0L; [26]): 72 | protease activity, referring to reference formulation at time 0 (Savinase Ultra 16.0L; [27]): 66 | protease activity, referring to reference formulation at time 0 (Savinase Ultra 16.0L; [28]): 54 | protease activity, referring to reference formulation at time 0 (Savinase Ultra 16.0L; [29]): 97 | amylase activity, referring to reference formulation at time 0 ([1]; 3 d): 94 | amylase activity, referring to reference formulation at time 0 ([1]; 7 d): 86 | amylase activity, referring to reference formulation at time 0 ([1]; 14 d): 82 | amylase activity, referring to reference formulation at time 0 ([1]; 21 d): 72 | amylase activity, referring to reference formulation at time 0 ([1]; 28 d): 64 | amylase activity, referring to reference formulation at time 0 ([1]; 42 d): 53 | amylase activity, referring to reference formulation at time 0 ([1]; T0): 99
